{"source": "patent US20250177357A1", "about": "“METHODS FOR TREATING HYPERTROPHIC CARDIOMYOPATHY” (priority 2021, published 2025)", "key": {"[1]": {"tested_on": "healthy adults", "test": "Phase 1 first-in-human study: safety and tolerability (adverse events), SAD and MAD cohorts", "conditions": "in vivo", "source_text": "Study Overview and Ethics. The study used a randomized, placebo-controlled, single-ascending dose (SAD) and multiple-ascending dose (MAD) design (FIG. 2). […] Dose escalation was to be stopped when this range was achieved, or when a non-tolerated dose was identified, if earlier.\nParticipants and Treatments. To be eligible for this study, participants were to be healthy adults aged 18 to 55 years, with body mass index of 18.0 to 32.0 kg/m^2, normal electrocardiogram (ECG) and clinical laboratory values, or only minor abnormalities that were deemed not clinically significant. Participants also had to have normal cardiac structure and function, with LVEF≥60% for the first 4 SAD cohorts, ≥65% for subsequent SAD cohorts, all MAD cohorts, and the food-effect cohort, and >55% for the CYP2D6-PM cohort. […]\nSafety and tolerability. Safety was assessed by the incidence of adverse events (AEs) and by incidence of reduced LVEF. […]\nFor safety monitoring, participants in all cohorts had periodic echocardiograms, which were assessed by a cardiologist. […] In addition, participants in all cohorts were monitored with continuous 12-lead ECG recording using Holter monitors. […] In the SAD, MAD, and CYP2D6-PM cohorts, cardiodynamic ECGs (triplicate 10-second, 12-lead ECG recordings) were obtained prior to the corresponding PK blood and ECG intervals quantitated by qualified readers."}, "[2]": {"test": "Phase 1 plasma pharmacokinetics, multiple-ascending dose cohorts", "type": "in vivo, human", "conditions": "for CLss/F, mean ± SD: n = 6", "method": "Multiple-ascending dose (MAD) cohorts. The MAD cohorts also used a randomized, double-blind, placebo-controlled, sequential design.\nPharmacokinetic analyses. For all study groups, blood samples for PK assessment were obtained pre-dose, up to 12 times daily on day 1, and then at regular intervals throughout the study. Blood samples were collected according to the following schedule: SAD Cohorts: Day 1: pre-dose and 0.25, 0.5, 1, 1.5, 2, 2.5, 3, 4, 6, 8, 12, 16, 24, 36, 48, 72, 96, and 216 h post dose. MAD Cohorts (14-day Dosing): Day 1: pre-dose and 0.25, 0.5, 1, 1.5, 2, 2.5, 3, 4, 6, 8, and 12 h post dose; Days 2, 4, 5, 6, and 9: pre-dose (corresponding to trough samples following dosing on days 1, 3, 4, 5, and 8) and 1.5 h post dose; Days 3, 7, 8, 10, 11, 12, and 13: pre-dose (corresponding to trough samples following dosing on days 2, 6, 7, 9, 10, 11, and 12); Day 14: pre-dose and 0.25, 0.5, 1.5, 2, 2.5, 3, 4, 6, 8, 12, 16, 24, 36, 48, 72, and 168 h post dose. MAD Cohort (17-Day Dosing): Day 1: pre-dose and 0.25, 0.5, 1, 1.5, 2, 2.5, 3, 4, 6, 8, and 12 h post dose; Days 2, 4, 5, 6, and 9: pre-dose (corresponding to trough samples following dosing on days 1, 3, 4, 5, and 8) and 1.5 h post dose; Days 3, 7, 8, 10, 11, 12, 13, 14, 15, and 16: pre-dose (corresponding to trough samples following dosing on days 2, 6, 7, 9, 10, 11, and 12); Day 17: pre-dose and 0.25, 0.5, 1.5, 2, 2.5, 3, 5, 7, 9, 12, 24, 36, 48, 72, and 168 h post dose. CYPD6-PM Cohort: Day 1: pre-dose and 0.25, 0.5, 1, 1.5, 2, 2.5, 3, 4, 6, 8, 12, 16, 24, 36, 48, 72, 96, 216, 312, and 552 h post dose. Food-Effect Cohort: Day 1: pre-dose and 0.25, 0.5, 1, 1.5, 2, 2.5, 3, 4, 6, 8, 12, 16, 24, 36, 48, 72, 96, 144, and 216 h post dose. Standard non-compartmental methods were used to calculate PK parameters using Phoenix® WinNonlin® Version 7.0; actual sample collection times were utilized.\nFor the MAD cohort, the parameters were AUC24 and Cmax on day 1, plus AUC to the […] (AUCtau) and Cmax on day 14 or 17. The statistical linear relationship between the ln-transformed PK parameters and the ln-transformed dose was verified by including the quadratic (ln Dose)^2 and cubic (ln Dose)^3 effects. […] The dose-proportionality analysis was performed using SAS® PROC MIXED.\nAn analysis of variance (ANOVA) model was conducted separately for each dose level; day was included as the fixed effect. Helmert contrasts were developed such that each time-point was compared with the mean of the subsequent time-points."}}, "data": [{"molecule": "CCc1nc(-c2ccc3c(c2)CC[C@H]3NC(=O)c2cnn(C)c2)no1", "note": "[aficamten, (R)—N-(5-(5-ethyl-1,2,4-oxadiazol-3-yl)-2,3-dihydro-1H-inden-1-yl)-1-methyl-1H-pyrazole-4-carboxamide]", "values": [{"measurement": "Time to resolution of AEs of decreased ejection fraction <45%", "setting": "[1]; human", "value": "2.5 to 4.6", "unit": "h"}, {"measurement": "Post-dose LVEF of 1 participant with LVEF <50%", "setting": "[1]", "value": 46.2, "unit": "%"}, {"measurement": "Steady state achieved by the end of day", "setting": "[2]; 5-mg and 7.5-mg doses once daily", "value": 12, "unit": "days"}, {"measurement": "Steady state achieved by the end of day", "setting": "[2]; 10-mg dose once daily", "value": 10, "unit": "days"}, {"measurement": "CLss/F, mean ± SD", "setting": "[2]; Day 14, 5 mg qd × 14 Days", "value": "3.9 ± 0.9", "unit": "L/h"}, {"measurement": "CLss/F, mean ± SD", "setting": "[2]; Day 14, 10 mg qd × 14 Days", "value": "3.9 ± 0.8", "unit": "L/h"}, {"measurement": "CLss/F, mean ± SD", "setting": "[2]; Day 17, 7.5 mg qd × 17 Days", "value": "3.1 ± 0.7", "unit": "L/h"}, {"measurement": "Time within which steady state is achieved", "setting": "[2]; once-daily dosing", "value": "≤ 2", "unit": "weeks"}]}]}
